Assay results taken from US4711898A, “4-quinolone derivatives having anti-inflammatory, anti-allergic, antitussive, expectorant and antithrombotic activity” (Nippon Shinyaku Co., Ltd., priority 1982, dated 1987).

Assays:
[1] = system: passive cutaneous anaphylaxis (DNP-As homocytotropic antiserum); assay: passive cutaneous anaphylatic assay (PCA) in rats; assay type: in vivo, Wistar strain rats; conditions: 10 mg/kg orally, one hour before antigen; for inhibition in vivo at 10 mg/kg: Rattus norvegicus, po, 1 h, read-out: PCA Inhibition Ratio %; for PCA Inhibition Ratio %: listed as H
Method: (§1) The compounds of the present invention have been evaluated for their anti-allergenic action by passive cutaneous anaphylatic assay (PCA) in rats and by measuring the anti-SRS-A action using ileus of guinea pigs.
(i) Antiserum abundant in homocytotropic antibody is prepared by the same method as Tada and Okumura did (cf. Journal of Immunology, vol. 106, page 1002, 1971). Thus, 1 mg (calculated as an amount of protein) of DNP-As (2,4-dinitrophenylcoupled ascaris extract) prepared by methods of Strejan and Campbell (Journal of Immunology, vol. 98, p. 893, 1967) and of Eisen (Journal of Amer. Chem. Soc., vol. 75, p 4593, 1953) and 1×10^10pertussis vaccine are administered to each paw of Wistar strain rats (180 to 200 grams body weights) by dividing the dose by four. Five days later, 0.5 mg of DNP-As is administered into muscle of back. Eight days later from the initial immunization, blood is taken from discending aorta under anesthetizing with ether, the resulting serum is stored at -80° and is melted before use.
(ii) Effect of tested compounds is investigated as follows:
Anti-serum obtained by th method (i) is diluted with physiological saline solution double by double successively and 0.05 ml of each diluted solution is administered into the back of Wistar strain rats (140 to 160 grams body weight) intradermally. After 72 hours, a solution of 2 mg (calculated as protein) of DNP-As and 2.5 mg of Evans Blue dissolved in 1 ml of physiological saline solution is administered intraveously at a dose of 5 ml/kg. After 30 minutes from the antigen solution administration, the animals are killed and the diameters of blue spots which appeared at the place where antiserum was administered were measured. The PCA test is conducted by the same method as already described using a diluted solutions of antiserum which always show 10 mm or more of spot diameters and the effect of the test compounds is judged. Thus antiserum diluted solutions are administered into two places in the back. Test compounds are administered orally at the dose of 10 mg/kg one hour before administration of the antigen solution. From the skin of reacted parts of killed animals, leaked or emitted dyestuff is extracted and the amount of the dyestuff is measured. The inhibition ratio is calculated by the following expression: [formula] in which A' is an amount of dyestuff in the group treated with the test compounds and A is that in the control group.

[2] = system: SRS-A (slow reacting substance of anaphylaxis) contraction of ileum; assay: Anti-SRS-A action using ileus of guinea pigs; assay type: cell-based, Hartley strain male guinea pigs; conditions: 5 min, guinea pig ileum, SRS-A 20 units, compound five minutes before; for inhibition at 1 µM: Cavia porcellus, 1/1000 mM, read-out: 1/1000 mM SRS-A Inhibition Ratio %
Method: as §1
Anti-SRS-A action (An anti-acton against slow reacting substance of anaphylaxis).
Hartley strain male guinea pigs (300 to 350 grams body weight) are killed and 1.0 to 1.5 cm of ileum is immeidiately excised from ileocecal parts and is suspended in 10 ml of Tyrode solution (95% 02 -5% CO2 saturation) containing 10^-7 g/ml of atropine and 10^-6 g/ml of pyrilamine. SRS-A (20 units) (the amount of SRS-A showing the same contradiction as 5 ng of histamine is defined as 1 unit) prepared by using sensitized guinea pig lung is given to cause contraction there. Then antagonistic action of test compounds treated five minutes ago against the contraction is measured and recorded via isotonic transducer. [formula] in which A' is a height of contraction of SRS-A+test compound and A is that of SRS-A.

Row | Structure (SMILES) | inhibition in vivo at 10 mg/kg [1] [%] | inhibition at 1 µM [2] [%] | PCA Inhibition Ratio % ([1]; H) [%] | PCA Inhibition Ratio % ([1]; Na salt) [%] | 1/1000 mM SRS-A Inhibition Ratio % ([2]; listed as H, Na salt, 1 µM) [%]
1 | COc1ccccc1C1=Nc2ccc(C(=O)O)cc2C(=O)C1 [Example 57, 2-(2-methoxyphenyl)-4-quinolone-6-carboxylic acid] | 20.4 | 27.7 | – | – | –
2 | CCOc1ccccc1-c1cc(=O)c2cc(C(=O)OC)ccc2[nH]1 [Example 58] | 23.1 | 63 | – | – | –
3 | CCOc1ccccc1-c1cc(=O)c2cc(C(=O)O)ccc2[nH]1 [Example 59] | 15.8 | 24.6 | – | – | –
4 | COC(=O)c1ccc2[nH]c(-c3ccccc3OC(C)C)cc(=O)c2c1 [Example 60] | 21.2 | 58.8 | – | – | –
5 | CC(C)Oc1ccccc1-c1cc(=O)c2cc(C(=O)O)ccc2[nH]1 [Example 61] | 20.1 | 31.8 | – | – | –
6 | COC(=O)c1ccc2[nH]c(-c3ccc(OC)cc3)cc(=O)c2c1 [Example 62] | 19 | 27.4 | – | – | –
7 | COc1ccc(-c2cc(=O)c3cc(C(=O)O)ccc3[nH]2)cc1 [Example 63] | 18.4 | 23 | – | – | –
8 | COc1ccc(-c2cc(=O)c3cc(C(=O)O)ccc3[nH]2)c(OC)c1 [Example 65] | 26.9 | 27.3 | – | – | –
9 | COC(=O)c1ccc2[nH]c(-c3ccc(OC)c(OC)c3)cc(=O)c2c1 [Example 66] | 25.4 | 25.7 | – | – | –
10 | COc1ccc(-c2cc(=O)c3cc(C(=O)O)ccc3[nH]2)cc1OC [Example 67] | 17.4 | 25 | – | – | –
11 | COC(=O)c1ccc(-c2cc(=O)c3cc(C(=O)OC)ccc3[nH]2)cc1 [Example 68] | 19.8 | 36.8 | – | – | –
12 | O=C(O)c1ccc(-c2cc(=O)c3cc(C(=O)O)ccc3[nH]2)cc1 [Example 69] | 25.8 | 27.9 | – | – | –
13 | O=C(O)c1ccc2[nH]c(-c3ccncc3)cc(=O)c2c1 [Example 71] | 25.6 | 25 | – | – | –
14 | COC(=O)c1ccc2[nH]c(-c3cccnc3)cc(=O)c2c1 [Example 72] | 17.8 | 22 | – | – | –
15 | O=C(O)c1ccc2[nH]c(-c3cccnc3)cc(=O)c2c1 [Example 73] | 20.4 | 23.8 | – | – | –
16 | COC(=O)c1ccc2[nH]c(-c3ccccn3)cc(=O)c2c1 [Example 74] | 23.1 | 25 | – | – | –
17 | O=C(O)c1ccc2[nH]c(-c3ccccn3)cc(=O)c2c1 [Example 75] | 20.4 | 28.9 | – | – | –
18 | O=C(O)c1ccc2[nH]c(-c3ccco3)cc(=O)c2c1 [Example 77] | 17.4 | 21 | – | – | –
19 | COC(=O)c1ccc2[nH]c(-c3cccs3)cc(=O)c2c1 [Example 78] | 26.7 | 23.3 | – | – | –
20 | O=C(O)c1ccc2[nH]c(-c3cccs3)cc(=O)c2c1 [Example 79] | 19.8 | 19.5 | – | – | –
21 | O=C(O)c1cccc2c(=O)cc(-c3ccccc3)[nH]c12 [Example 81] | – | 26.4 | 35.3 | – | –
22 | O=C(O)c1cccc2c(=O)cc(-c3ccccc3)[nH]c12 [Example 82] | – | – | – | 10.0 | 27.3
23 | O=C(O)c1cccc2c(=O)cc(-c3cccc(Cl)c3)[nH]c12 [Example 87] | 19.3 | 20.7 | – | – | –
24 | COC(=O)c1cccc2c(=O)cc(-c3ccc(Cl)cc3Cl)[nH]c12 [Example 88] | 17.5 | 45.5 | – | – | –
25 | O=C(O)c1cccc2c(=O)cc(-c3ccc(Cl)cc3Cl)[nH]c12 [Example 90] | 23.4 | 53.6 | – | – | –
26 | O=C(O)c1cccc2c(=O)cc(-c3ccc(Cl)c(Cl)c3)[nH]c12 [Example 91] | 22.7 | 24.2 | – | – | –
27 | Cc1ccc(-c2cc(=O)c3cccc(C(=O)O)c3[nH]2)cc1 [Example 93] | 23.5 | 26.7 | – | – | –
